Tests used:
ΔF508-CFTR [1] = biological target: T1, ΔF508-CFTR (Homo sapiens, UniProt P13569, DEL508-508); assay: CFTR cell surface levels using HRP-tagged ΔF508-CFTR expressing CFBE cells, in the presence of a co-corrector; format: cell-based; conditions: HRP-tagged ΔF508-CFTR CFBE41o- cells, with 3 μM co-corrector; for % Activation: positive control 3 μM co-corrector
T1 construct: host or cells: CFBE41o- cells, doxycycline-inducible expression
Source text: (§1) Measuring CFTR Cell Surface Levels Using HRP-Tagged ΔF508-CFTR Expressing CFBE Cells
(§2) The HRP-tagged ΔF508-CFTR cell assay measures the expression of CFTR-ΔF508 at the plasma membrane. CFTR-ΔF508 has a folding defect leading to absence of protein at the plasma membrane. This assay is used to evaluate the capacity of compounds to increase the expression of CFTR-ΔF508 at the plasma membrane. […] When HRP-tagged ΔF508-CFTR is present at the plasma membrane, the HRP enzyme activity can be measured. The amount of CFTR-ΔF508 that can be rescued to the plasma membrane is correlated with the amount of functional enzyme that can be measured.
(§3) There are several ways to measure the capacity of compounds to rescue CFTR-ΔF508 to the plasma membrane; either compounds are evaluated on their own and the impact on plasma membrane levels is measured or compounds are evaluated in combination with a co-corrector, i.e. a compound that rescues CFTR-ΔF508 to the plasma membrane but rescue can be enhanced by addition of compounds due to a complementary mode of action.
Activity of Compounds in Combination with Co-Corrector:
On day four, 10 μL of test compounds diluted in PBS (phosphate buffered saline) were added to the plates at a final DMSO concentration of 0.1%. In order to measure compound synergy with a co-corrector, 3 μM co-corrector (3-[(2R,4R)-4-({[1-(2,2-difluoro-1,3-benzodioxol-5-yl)cyclopropyl]carbonyl}amino)-7-methoxy-3,4-dihydro-2H-chromen-2-yl]benzoic acid) was added along with test compounds. All compound plates contained negative controls (DMSO) and positive controls (3 μM co-corrector). Cell plates were incubated at 33° C., 5% CO2 for 20 hours. […] After incubation for 15 minutes in the dark, the chemiluminescence was measured using a plate reader (EnVision®, Perkin Elmer). Raw data were normalized to percentage activity values using the equation: 100×(Sample−Negative control)/(Positive control−Negative Control).

ΔF508-CFTR [2] = biological target: T1, ΔF508-CFTR; assay: CFTR cell surface levels using HRP-tagged ΔF508-CFTR expressing CFBE cells, intrinsic corrector capacity; format: cell-based; design: % Activation: concentration or dose not given beside the values; conditions: HRP-tagged ΔF508-CFTR expressing CFBE41o- cells; compounds alone (intrinsic corrector capacity); 20 hours at 33° C.
Source text: as §1, §2, §3
Activity of Compounds for their Intrinsic Corrector Capacity:
On day four, L test compounds diluted in PBS were added to the plates at a final DMSO concentration of 0.1%. All compound plates contained negative controls (DMSO) and positive controls ([…] corrector, 3-[(2R,4R)-4-({[1-(2,2-difluoro-1,3-benzodioxol-5-yl)cyclopropyl]carbonyl}amino)-7-methoxy-3,4-dihydro-2H-chromen-2-yl]benzoic acid). Cell plates were incubated at 33° C., 5% CO2 for 20 hours. […] After incubation for 15 minutes in the dark, chemiluminescence was measured using a plate reader (EnVision®, Perkin Elmer). Raw data were normalized to percentage activity values using the equation: 100×(Sample−Negative control)/(Positive control−Negative Control).

T1 sequence (P13569 with tags, fused parts or gaps DEL508-508): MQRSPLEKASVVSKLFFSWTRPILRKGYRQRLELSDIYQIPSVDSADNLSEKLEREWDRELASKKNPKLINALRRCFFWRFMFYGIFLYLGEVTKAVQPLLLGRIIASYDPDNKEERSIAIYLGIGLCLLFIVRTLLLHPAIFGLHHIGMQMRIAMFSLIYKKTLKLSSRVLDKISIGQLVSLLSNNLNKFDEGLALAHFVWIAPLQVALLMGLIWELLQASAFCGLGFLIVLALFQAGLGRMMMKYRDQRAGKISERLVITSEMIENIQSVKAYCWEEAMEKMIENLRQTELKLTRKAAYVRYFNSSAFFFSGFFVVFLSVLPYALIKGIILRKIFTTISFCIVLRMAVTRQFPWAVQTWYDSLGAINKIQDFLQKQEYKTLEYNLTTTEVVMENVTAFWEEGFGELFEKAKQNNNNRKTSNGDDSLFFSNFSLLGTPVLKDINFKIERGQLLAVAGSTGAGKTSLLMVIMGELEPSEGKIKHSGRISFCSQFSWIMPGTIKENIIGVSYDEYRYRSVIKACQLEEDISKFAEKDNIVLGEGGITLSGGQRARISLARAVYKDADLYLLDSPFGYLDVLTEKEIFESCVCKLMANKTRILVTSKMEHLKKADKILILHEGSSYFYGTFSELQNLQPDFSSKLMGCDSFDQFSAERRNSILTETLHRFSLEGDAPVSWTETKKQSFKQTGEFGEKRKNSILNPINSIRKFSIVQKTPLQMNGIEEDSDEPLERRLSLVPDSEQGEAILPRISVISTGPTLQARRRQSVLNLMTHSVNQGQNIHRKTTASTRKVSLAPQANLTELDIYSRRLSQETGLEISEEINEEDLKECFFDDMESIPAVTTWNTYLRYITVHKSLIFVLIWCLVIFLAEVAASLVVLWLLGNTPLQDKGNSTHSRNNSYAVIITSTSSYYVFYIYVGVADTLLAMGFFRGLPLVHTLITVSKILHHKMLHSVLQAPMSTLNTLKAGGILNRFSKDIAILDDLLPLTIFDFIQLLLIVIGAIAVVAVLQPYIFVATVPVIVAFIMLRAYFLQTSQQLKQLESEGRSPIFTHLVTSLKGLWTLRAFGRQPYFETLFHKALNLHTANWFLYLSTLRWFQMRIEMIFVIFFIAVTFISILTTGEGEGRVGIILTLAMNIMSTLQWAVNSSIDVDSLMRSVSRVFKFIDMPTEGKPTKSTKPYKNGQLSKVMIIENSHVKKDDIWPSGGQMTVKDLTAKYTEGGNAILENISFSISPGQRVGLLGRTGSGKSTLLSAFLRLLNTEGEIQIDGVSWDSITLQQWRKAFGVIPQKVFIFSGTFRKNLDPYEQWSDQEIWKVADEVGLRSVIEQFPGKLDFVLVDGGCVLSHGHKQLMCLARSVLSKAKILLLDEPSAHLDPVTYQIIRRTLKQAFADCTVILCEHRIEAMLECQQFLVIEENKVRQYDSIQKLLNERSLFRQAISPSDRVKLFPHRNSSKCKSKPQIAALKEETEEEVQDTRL

Row | Structure (SMILES) | EC50 (ΔF508-CFTR [1]) [µM] | EC50 (ΔF508-CFTR [2]) [µM] | further results
1 | Cc1nn(C2CCCCC2)c2nc(C(=O)NS(C)(=O)=O)cc(-c3ccc(N4CCOCC4)nc3)c12 [compound 47] | 1.6 | – | –
2 | CS(=O)(=O)NC(=O)c1cc(OCCCN2CCCCC2)c2c(C3CCC3)nn(-c3ccccc3)c2n1 [compound 314] | 0.692 | – | –
3 | COCC1CCN(Cc2cc(C(=O)NS(=O)(=O)N(C)C)nc3c2c(C2CCC2)nn3-c2ccc(F)cc2)CC1 [compound 521] | – | 10 | –
4 | CC(c1ccc(-c2cc(C(=O)NS(=O)(=O)N(C)C)nc3c2c(C2CCC2)nn3C2CCCCC2)cc1)N1CCOCC1 (stereo not drawn) [compound 543] | 0.0393 | – | –
5 | CN(C)S(=O)(=O)NC(=O)c1cc(N2CCC(N3CCC(C#N)C3)CC2)c2c(C3CCC3)nn(-c3ccc(F)cc3)c2n1 (stereo not drawn) [compound 561] | 0.042 | – | –
6 | CC(C)N1CCC(c2cc(C(=O)NS(=O)(=O)N(C)C)nc3c2c(C2CCC2)nn3-c2ccc(F)cc2)CC1 [compound 598] | – | 10 | –
7 | CN(C)S(=O)(=O)NC(=O)c1cc(C2CCN(CCC(F)(F)F)CC2)c2c(C3CCC3)nn(-c3ccc(F)cc3)c2n1 [compound 604] | – | – | % Activation (ΔF508-CFTR [1]): 269.3%
8 | CN(C)S(=O)(=O)NC(=O)c1cc(C2CCN(CC3CC3)CC2)c2c(C3CCC3)nn(-c3ccc(F)cc3)c2n1 [compound 613] | – | 10 | –
9 | CC(C)Oc1nn(C2CCCCC2)c2nc(C(=O)NS(C)(=O)=O)cc(-c3ccc(C4(C#N)CCN(C)CC4)cc3)c12 [compound 639] | 0.0744 | 0.132 | % Activation (ΔF508-CFTR [1]): 464.55%; % Activation (ΔF508-CFTR [2]): 238.35%
